Source: PubChem BioAssay AID504473 (NMMLSC, 2011)
Active and inactive are the calls of the source.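 The calls were made as follows: active = GFP ratio to DMSO above 1.5 or below 0.66; inactive = the rest.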

Assays:
Assay in all cases: TOR pathway GFP reporter clone modulation in yeast – S. cerevisiae, GFP-tagged clone panel, flow cytometry (AID 504473);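 also: median GFP fluorescence of the cells measured by high-throughput flow cytometry; test concentration not given here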
[1] = biological target: General amino acid permease AGP1 (Saccharomyces cerevisiae S288c) (UniProt P25376); conditions: S. cerevisiae GFP-tagged strains, 3 h, YCL025C
General amino acid permease AGP1 (Saccharomyces cerevisiae S288c), sequence (P25376 whole entry, looked up): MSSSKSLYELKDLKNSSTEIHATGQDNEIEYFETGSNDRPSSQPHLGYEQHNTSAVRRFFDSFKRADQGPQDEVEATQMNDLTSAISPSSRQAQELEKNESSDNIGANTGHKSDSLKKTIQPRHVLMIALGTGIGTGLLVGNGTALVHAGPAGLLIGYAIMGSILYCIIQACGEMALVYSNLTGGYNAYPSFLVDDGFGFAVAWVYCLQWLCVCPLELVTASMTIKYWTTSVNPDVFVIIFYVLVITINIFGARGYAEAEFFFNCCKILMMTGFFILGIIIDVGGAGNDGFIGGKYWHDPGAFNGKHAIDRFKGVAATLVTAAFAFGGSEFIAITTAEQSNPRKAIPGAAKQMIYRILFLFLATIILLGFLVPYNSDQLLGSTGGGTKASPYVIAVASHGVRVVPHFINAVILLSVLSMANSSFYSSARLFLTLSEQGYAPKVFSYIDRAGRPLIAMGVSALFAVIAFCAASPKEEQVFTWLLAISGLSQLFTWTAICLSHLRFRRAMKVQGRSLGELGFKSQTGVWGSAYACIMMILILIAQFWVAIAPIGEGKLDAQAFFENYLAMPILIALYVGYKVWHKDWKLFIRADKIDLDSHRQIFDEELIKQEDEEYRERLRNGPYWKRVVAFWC

[2] = test system: YAL060W; conditions: S. cerevisiae GFP-tagged strains, 3 h
[3] = test system: YAL061W; conditions: S. cerevisiae GFP-tagged strains, 3 h
[4] = test system: YBL087C; conditions: S. cerevisiae GFP-tagged strains, 3 h
[5] = test system: YBR072W; conditions: S. cerevisiae GFP-tagged strains, 3 h
[6] = test system: YBR139W; conditions: S. cerevisiae GFP-tagged strains, 3 h
[7] = test system: YBR208C; conditions: S. cerevisiae GFP-tagged strains, 3 h
[8] = test system: YBR248C; conditions: S. cerevisiae GFP-tagged strains, 3 h
[9] = test system: YCL064C; conditions: S. cerevisiae GFP-tagged strains, 3 h
[10] = test system: YCR002C; conditions: S. cerevisiae GFP-tagged strains, 3 h
[11] = test system: YCR005C; conditions: S. cerevisiae GFP-tagged strains, 3 h
[12] = test system: YDL130W; conditions: S. cerevisiae GFP-tagged strains, 3 h
[13] = test system: YDL204W; conditions: S. cerevisiae GFP-tagged strains, 3 h
[14] = test system: YDL205C; conditions: S. cerevisiae GFP-tagged strains, 3 h
[15] = test system: YDR070C; conditions: S. cerevisiae GFP-tagged strains, 3 h
[16] = test system: YDR382W; conditions: S. cerevisiae GFP-tagged strains, 3 h
[17] = test system: YDR399W; conditions: S. cerevisiae GFP-tagged strains, 3 h
[18] = test system: YDR453C; conditions: S. cerevisiae GFP-tagged strains, 3 h
[19] = test system: YEL007W; conditions: S. cerevisiae GFP-tagged strains, 3 h
[20] = test system: YEL060C; conditions: S. cerevisiae GFP-tagged strains, 3 h
[21] = test system: YEL063C; conditions: S. cerevisiae GFP-tagged strains, 3 h
[22] = test system: YEL071W; conditions: S. cerevisiae GFP-tagged strains, 3 h
[23] = test system: YER081W; conditions: S. cerevisiae GFP-tagged strains, 3 h
[24] = test system: YER117W; conditions: S. cerevisiae GFP-tagged strains, 3 h
[25] = test system: YER151C; conditions: S. cerevisiae GFP-tagged strains, 3 h
[26] = test system: YER156C; conditions: S. cerevisiae GFP-tagged strains, 3 h
[27] = test system: YFR031C-A; conditions: S. cerevisiae GFP-tagged strains, 3 h
[28] = test system: YFR053C; conditions: S. cerevisiae GFP-tagged strains, 3 h
[29] = test system: YGL036W; conditions: S. cerevisiae GFP-tagged strains, 3 h
[30] = test system: YGL062W; conditions: S. cerevisiae GFP-tagged strains, 3 h
[31] = test system: YGL135W; conditions: S. cerevisiae GFP-tagged strains, 3 h
[32] = test system: YGL147C; conditions: S. cerevisiae GFP-tagged strains, 3 h
[33] = test system: YGR019W; conditions: S. cerevisiae GFP-tagged strains, 3 h
[34] = test system: YGR034W; conditions: S. cerevisiae GFP-tagged strains, 3 h
[35] = test system: YGR088W; conditions: S. cerevisiae GFP-tagged strains, 3 h
[36] = test system: YGR121C; conditions: S. cerevisiae GFP-tagged strains, 3 h
[37] = test system: YHL021C; conditions: S. cerevisiae GFP-tagged strains, 3 h
[38] = test system: YHR018C; conditions: S. cerevisiae GFP-tagged strains, 3 h
[39] = test system: YHR087W; conditions: S. cerevisiae GFP-tagged strains, 3 h
[40] = test system: YHR141C; conditions: S. cerevisiae GFP-tagged strains, 3 h
[41] = test system: YHR144C; conditions: S. cerevisiae GFP-tagged strains, 3 h
[42] = test system: YHR203C; conditions: S. cerevisiae GFP-tagged strains, 3 h
[43] = test system: YIL043C; conditions: S. cerevisiae GFP-tagged strains, 3 h
[44] = test system: YIL051C; conditions: S. cerevisiae GFP-tagged strains, 3 h
[45] = test system: YIL052C; conditions: S. cerevisiae GFP-tagged strains, 3 h
[46] = test system: YIL066C; conditions: S. cerevisiae GFP-tagged strains, 3 h
[47] = test system: YIL069C; conditions: S. cerevisiae GFP-tagged strains, 3 h
[48] = test system: YJL056C; conditions: S. cerevisiae GFP-tagged strains, 3 h
[49] = test system: YJL144W; conditions: S. cerevisiae GFP-tagged strains, 3 h
[50] = test system: YJR148W; conditions: S. cerevisiae GFP-tagged strains, 3 h
[51] = test system: YKL086W; conditions: S. cerevisiae GFP-tagged strains, 3 h
[52] = test system: YKL103C; conditions: S. cerevisiae GFP-tagged strains, 3 h
[53] = test system: YKL119C; conditions: S. cerevisiae GFP-tagged strains, 3 h
[54] = test system: YKR039W; conditions: S. cerevisiae GFP-tagged strains, 3 h
[55] = test system: YKR093W; conditions: S. cerevisiae GFP-tagged strains, 3 h
[56] = test system: YKR094C; conditions: S. cerevisiae GFP-tagged strains, 3 h
[57] = test system: YLL026W; conditions: S. cerevisiae GFP-tagged strains, 3 h
[58] = test system: YLL039C; conditions: S. cerevisiae GFP-tagged strains, 3 h
[59] = test system: YLR058C; conditions: S. cerevisiae GFP-tagged strains, 3 h
[60] = test system: YLR109W; conditions: S. cerevisiae GFP-tagged strains, 3 h
[61] = test system: YLR142W; conditions: S. cerevisiae GFP-tagged strains, 3 h
[62] = test system: YLR185W; conditions: S. cerevisiae GFP-tagged strains, 3 h
[63] = test system: YLR237W; conditions: S. cerevisiae GFP-tagged strains, 3 h
[64] = test system: YLR287C-A; conditions: S. cerevisiae GFP-tagged strains, 3 h
[65] = test system: YLR367W; conditions: S. cerevisiae GFP-tagged strains, 3 h
[66] = test system: YML004C; conditions: S. cerevisiae GFP-tagged strains, 3 h
[67] = test system: YML026C; conditions: S. cerevisiae GFP-tagged strains, 3 h
[68] = test system: YML034W; conditions: S. cerevisiae GFP-tagged strains, 3 h
[69] = test system: YML063W; conditions: S. cerevisiae GFP-tagged strains, 3 h
[70] = test system: YML128C; conditions: S. cerevisiae GFP-tagged strains, 3 h
[71] = test system: YMR105C; conditions: S. cerevisiae GFP-tagged strains, 3 h
[72] = test system: YMR120C; conditions: S. cerevisiae GFP-tagged strains, 3 h
[73] = test system: YMR251W-A; conditions: S. cerevisiae GFP-tagged strains, 3 h
[74] = test system: YMR307W; conditions: S. cerevisiae GFP-tagged strains, 3 h
[75] = test system: YNL015W; conditions: S. cerevisiae GFP-tagged strains, 3 h
[76] = test system: YNL068C; conditions: S. cerevisiae GFP-tagged strains, 3 h
[77] = test system: YNL112W; conditions: S. cerevisiae GFP-tagged strains, 3 h
[78] = test system: YNL142W; conditions: S. cerevisiae GFP-tagged strains, 3 h
[79] = test system: YNL214W; conditions: S. cerevisiae GFP-tagged strains, 3 h
[80] = test system: YNR001C; conditions: S. cerevisiae GFP-tagged strains, 3 h
[81] = test system: YOL052C-A; conditions: S. cerevisiae GFP-tagged strains, 3 h
[82] = test system: YOR038C; conditions: S. cerevisiae GFP-tagged strains, 3 h
[83] = test system: YOR063W; conditions: S. cerevisiae GFP-tagged strains, 3 h
[84] = test system: YOR136W; conditions: S. cerevisiae GFP-tagged strains, 3 h
[85] = test system: YOR173W; conditions: S. cerevisiae GFP-tagged strains, 3 h
[86] = test system: YOR182C; conditions: S. cerevisiae GFP-tagged strains, 3 h
[87] = test system: YOR371C; conditions: S. cerevisiae GFP-tagged strains, 3 h
[88] = test system: YOR375C; conditions: S. cerevisiae GFP-tagged strains, 3 h
[89] = test system: YPL111W; conditions: S. cerevisiae GFP-tagged strains, 3 h
[90] = test system: YPL131W; conditions: S. cerevisiae GFP-tagged strains, 3 h
[91] = test system: YPL150W; conditions: S. cerevisiae GFP-tagged strains, 3 h
[92] = test system: YPL220W; conditions: S. cerevisiae GFP-tagged strains, 3 h
[93] = test system: YPL265W; conditions: S. cerevisiae GFP-tagged strains, 3 h
[94] = test system: YPR132W; conditions: S. cerevisiae GFP-tagged strains, 3 h
[95] = test system: YPR145W; conditions: S. cerevisiae GFP-tagged strains, 3 h
[96] = test system: YPR184W; conditions: S. cerevisiae GFP-tagged strains, 3 h

## CNc1nc(N)c([N+](=O)[O-])c(Nc2ccccc2)n1
[1]
  GFP ratio to DMSO: 0.776 (inactive)
[2]
  GFP ratio to DMSO: 0.91 (inactive)
[3]
  GFP ratio to DMSO: 0.796 (inactive)
[4]
  GFP ratio to DMSO: 1 (inactive)
[5]
  GFP ratio to DMSO: 0.795 (inactive)
[6]
  GFP ratio to DMSO: 0.915 (inactive)
[7]
  GFP ratio to DMSO: 0.853 (inactive)
[8]
  GFP ratio to DMSO: 0.927 (inactive)
[9]
  GFP ratio to DMSO: 0.878 (inactive)
[10]
  GFP ratio to DMSO: 0.929 (inactive)
[11]
  GFP ratio to DMSO: 1.37 (inactive)
[12]
  GFP ratio to DMSO: 1.09 (inactive)
[13]
  GFP ratio to DMSO: 0.948 (inactive)
[14]
  GFP ratio to DMSO: 0.983 (inactive)
[15]
  GFP ratio to DMSO: 0.918 (inactive)
[16]
  GFP ratio to DMSO: 1.14 (inactive)
[17]
  GFP ratio to DMSO: 0.947 (inactive)
[18]
  GFP ratio to DMSO: 0.899 (inactive)
[19]
  GFP ratio to DMSO: 0.874 (inactive)
[20]
  GFP ratio to DMSO: 0.694 (inactive)
[21]
  GFP ratio to DMSO: 1.03 (inactive)
[22]
  GFP ratio to DMSO: 1.66
[23]
  GFP ratio to DMSO: 1.14 (inactive)
[24]
  GFP ratio to DMSO: 0.909 (inactive)
[25]
  GFP ratio to DMSO: 0.943 (inactive)
[26]
  GFP ratio to DMSO: 0.978 (inactive)
[27]
  GFP ratio to DMSO: 1.06 (inactive)
[28]
  GFP ratio to DMSO: 0.83 (inactive)
[29]
  GFP ratio to DMSO: 0.822 (inactive)
[30]
  GFP ratio to DMSO: 1.34 (inactive)
[31]
  GFP ratio to DMSO: 1.08 (inactive)
[32]
  GFP ratio to DMSO: 1.05 (inactive)
[33]
  GFP ratio to DMSO: 0.906 (inactive)
[34]
  GFP ratio to DMSO: 1.07 (inactive)
[35]
  GFP ratio to DMSO: 0.924 (inactive)
[36]
  GFP ratio to DMSO: 0.942 (inactive)
[37]
  GFP ratio to DMSO: 1.07 (inactive)
[38]
  GFP ratio to DMSO: 0.874 (inactive)
[39]
  GFP ratio to DMSO: 0.827 (inactive)
[40]
  GFP ratio to DMSO: 1.04 (inactive)
[41]
  GFP ratio to DMSO: 0.896 (inactive)
[42]
  GFP ratio to DMSO: 1.04 (inactive)
[43]
  GFP ratio to DMSO: 1.02 (inactive)
[44]
  GFP ratio to DMSO: 0.923 (inactive)
[45]
  GFP ratio to DMSO: 0.931 (inactive)
[46]
  GFP ratio to DMSO: 0.844 (inactive)
[47]
  GFP ratio to DMSO: 1.11 (inactive)
[48]
  GFP ratio to DMSO: 0.808 (inactive)
[49]
  GFP ratio to DMSO: 0.911 (inactive)
[50]
  GFP ratio to DMSO: 1.26 (inactive)
[51]
  GFP ratio to DMSO: 0.881 (inactive)
[52]
  GFP ratio to DMSO: 0.988 (inactive)
[53]
  GFP ratio to DMSO: 0.959 (inactive)
[54]
  GFP ratio to DMSO: 0.804 (inactive)
[55]
  GFP ratio to DMSO: 1.17 (inactive)
[56]
  GFP ratio to DMSO: 1.11 (inactive)
[57]
  GFP ratio to DMSO: 1 (inactive)
[58]
  GFP ratio to DMSO: 0.733 (inactive)
[59]
  GFP ratio to DMSO: 0.838 (inactive)
[60]
  GFP ratio to DMSO: 1.17 (inactive)
[61]
  GFP ratio to DMSO: 0.866 (inactive)
[62]
  GFP ratio to DMSO: 1.08 (inactive)
[63]
  GFP ratio to DMSO: 0.848 (inactive)
[64]
  GFP ratio to DMSO: 1.1 (inactive)
[65]
  GFP ratio to DMSO: 1.06 (inactive)
[66]
  GFP ratio to DMSO: 0.838 (inactive)
[67]
  GFP ratio to DMSO: 0.957 (inactive)
[68]
  GFP ratio to DMSO: 0.814 (inactive)
[69]
  GFP ratio to DMSO: 1.07 (inactive)
[70]
  GFP ratio to DMSO: 0.827 (inactive)
[71]
  GFP ratio to DMSO: 1.02 (inactive)
[72]
  GFP ratio to DMSO: 0.519
[73]
  GFP ratio to DMSO: 0.892 (inactive)
[74]
  GFP ratio to DMSO: 1.05 (inactive)
[75]
  GFP ratio to DMSO: 0.929 (inactive)
[76]
  GFP ratio to DMSO: 0.902 (inactive)
[77]
  GFP ratio to DMSO: 1.12 (inactive)
[78]
  GFP ratio to DMSO: 0.933 (inactive)
[79]
  GFP ratio to DMSO: 1.01 (inactive)
[80]
  GFP ratio to DMSO: 1.05 (inactive)
[81]
  GFP ratio to DMSO: 0.961 (inactive)
[82]
  GFP ratio to DMSO: 0.966 (inactive)
[83]
  GFP ratio to DMSO: 1.07 (inactive)
[84]
  GFP ratio to DMSO: 1.11 (inactive)
[85]
  GFP ratio to DMSO: 0.941 (inactive)
[86]
  GFP ratio to DMSO: 1.02 (inactive)
[87]
  GFP ratio to DMSO: 0.844 (inactive)
[88]
  GFP ratio to DMSO: 1.03 (inactive)
[89]
  GFP ratio to DMSO: 1.02 (inactive)
[90]
  GFP ratio to DMSO: 1.14 (inactive)
[91]
  GFP ratio to DMSO: 0.843 (inactive)
[92]
  GFP ratio to DMSO: 1.01 (inactive)
[93]
  GFP ratio to DMSO: 1.38 (inactive)
[94]
  GFP ratio to DMSO: 1.18 (inactive)
[95]
  GFP ratio to DMSO: 1.17 (inactive)
[96]
  GFP ratio to DMSO: 0.886 (inactive)
